Converted amounts (≈) assume the structure as drawn. “Also recorded” adds a separate entry of the source.
test system: Staphyllococcus aureus; test: not given; parameters: method as in PMID 17442577; conditions: previous studies; cited from earlier work

| Compound | antibacterial activity against S. aureus, in words |
| --- | --- |
| CC(C)=CCC/C(C)=C\CC/C(C)=C/C[n+]1cn(C)c2ncnc(N)c21 [Compound 2a] | virtually inactive |
| CC(C)=CCC/C(C)=C/CC/C(C)=C/CC/C(C)=C/Cn1cc[n+](C)c1 [Compound 5] | reasonably active |

test system: P. falciparum GHA-strain (chloroquine-suceptible); test: Antiplasmodial activity, Malstat method; assay type: cell-based, Plasmodium falciparum; conditions: Plasmodium falciparum, 72 h, read-out: P. falciparum IC50

| Compound | IC50 [µg/mL] |
| --- | --- |
| CCN(CC)CCCC(C)Nc1ccnc2cc(Cl)ccc12 (stereo not shown) [Chloroquine, reference compound] | 0.04 (≈ 0.125 µM) |
| C/C(=C\C[n+]1cn(C)c2ncnc(N)c21)CCCC(C)CCCC(C)CCCC(C)C (stereo not shown) [Compound 2b] | 0.96 |

same assay, conditions: Plasmodium falciparum; GHA-strain, 72 h; TDR hit criterion <0.2 μg/mL; read-out: P. falciparum IC50

| Compound | IC50 [µg/mL] |
| --- | --- |
| CO/N=c1\[n-]cnc2c1n(C/C=C(\C)CCC=C(C)C)c[n+]2C [Compound 1a] | 0.46 (≈ 1.46 µM) |
| CO/N=c1\[n-]cnc2c1[n+](C/C=C(\C)CC/C=C(\C)CCC=C(C)C)cn2C [Compound 1b] | 0.63 (≈ 1.64 µM) |
| CC(C)=CCC/C(C)=C\CC/C(C)=C/C[n+]1cn(C)c2nc[n-]/c(=N\OCc3ccccc3)c21 [Compound 1c] | 0.74 (≈ 1.61 µM) |
| CC(C)=CCC/C(C)=C\CC/C(C)=C/C[n+]1cn(C)c2ncnc(N)c21 [Compound 2a] | 2.9 |
| CC(C)=CCC/C(C)=C/CC/C(C)=C/CC/C(C)=C/Cn1cc[n+](C)c1 [Compound 5] | 0.97 |

test system: Leishmania infantum amastigotes (MHOM/ET 67); test: Antileishmanial activity, amastigotes in primary peritoneal mouse macrophages; assay type: cell-based; conditions: Leishmania infantum, Macrophage, 120 h, read-out: L. infantum IC50
Procedure: Leishmania infantum amastigotes (MHOM/ET 67) were collected from an infected donor hamster and used to infect primary peritoneal mouse macrophages. To determine in vitro antileishmanial activity, 3×10^4 macrophages were seeded in each well of a 96-well plate. After 48 h outgrowth, 5×10^4 amastigotes/well were added and incubated for 2 h at 37 °C. […] Parasite burdens were determined microscopically after Giemsa staining and expressed as a percentage of the blank controls without compound.

| Compound | IC50 [µg/mL] |
| --- | --- |
| C/C(=C\C[n+]1cn(C)c2ncnc(N)c21)CCCC(C)CCCC(C)CCCC(C)C (stereo not shown) [Compound 2b] | 2.9 |

same assay, conditions: Leishmania infantum, Macrophage; intracellular amastigotes, 120 h; TDR hit criterion <0.5 μg/mL; read-out: L. infantum IC50

| Compound | IC50 [µg/mL] |
| --- | --- |
| CO/N=c1\[n-]cnc2c1n(C/C=C(\C)CCC=C(C)C)c[n+]2C [Compound 1a] | 7.5 (≈ 23.8 µM) |
| CO/N=c1\[n-]cnc2c1[n+](C/C=C(\C)CC/C=C(\C)CCC=C(C)C)cn2C [Compound 1b] | 0.77 (≈ 2.01 µM) |
| CC(C)=CCC/C(C)=C\CC/C(C)=C/C[n+]1cn(C)c2nc[n-]/c(=N\OCc3ccccc3)c21 [Compound 1c] | 0.99 (≈ 2.15 µM) |
| CC(C)=CCC/C(C)=C\CC/C(C)=C/C[n+]1cn(C)c2ncnc(N)c21 [Compound 2a] | > 26 |
| CC(C)=CCC/C(C)=C/CC/C(C)=C/CC/C(C)=C/Cn1cc[n+](C)c1 [Compound 5] | < 0.11 |

same assay, conditions: criterion IC50 <0.5 μg/mL and SI >20

| Compound | hit for leishmaniasis according to TDR |
| --- | --- |
| CC(C)=CCC/C(C)=C/CC/C(C)=C/CC/C(C)=C/Cn1cc[n+](C)c1 [Compound 5] | classifies as a hit; also recorded: identified as hits |

test system: Mycobacterium tuberculosis; test: not given; conditions: previous studies; cited from earlier work

| Compound | antibacterial activity against M. tuberculosis, in words |
| --- | --- |
| CC(C)=CCC/C(C)=C\CC/C(C)=C/C[n+]1cn(C)c2ncnc(N)c21 [Compound 2a] | virtually inactive |
| CC(C)=CCC/C(C)=C/CC/C(C)=C/CC/C(C)=C/Cn1cc[n+](C)c1 [Compound 5] | not against |

test system: T. cruzi Tulahuen CL2 strain (nifurtimox-sensitive); test: Antitrypanosomal activity, T. cruzi on MRC-5 cells, β-galactosidase readout; assay type: cell-based, Trypanosoma cruzi; conditions: not given
Procedure: To determine in vitro anti-trypanosomal activity, 4×10^3 MRC-5 cells and 4×10^4 parasites were added to each well of test plate with compound. […] The color reaction was read at 540 nm and absorbance values were expressed as a percentage of the blank controls.

| Compound | hit for Chagas disease according to TDR |
| --- | --- |
| CC(C)=CCC/C(C)=C\CC/C(C)=C/C[n+]1cn(C)c2ncnc(N)c21 [Compound 2a] | classified as hits; also recorded: identified as hits |
| CC(C)=CCC/C(C)=C/CC/C(C)=C/CC/C(C)=C/Cn1cc[n+](C)c1 [Compound 5] | classified as hits; also recorded: identified as hits |

same assay, conditions: Trypanosoma cruzi, TULAHUEN, MRC5, 168 h, read-out: T. cruzi IC50

| Compound | IC50 [µg/mL] |
| --- | --- |
| CO/N=c1\[n-]cnc2c1n(C/C=C(\C)CCC=C(C)C)c[n+]2C [Compound 1a] | < 0.079 |
| CO/N=c1\[n-]cnc2c1[n+](C/C=C(\C)CC/C=C(\C)CCC=C(C)C)cn2C [Compound 1b] | < 0.096 |
| CC(C)=CCC/C(C)=C\CC/C(C)=C/C[n+]1cn(C)c2nc[n-]/c(=N\OCc3ccccc3)c21 [Compound 1c] | < 0.11 |
| CC(C)=CCC/C(C)=C\CC/C(C)=C/C[n+]1cn(C)c2ncnc(N)c21 [Compound 2a] | 0.43 |
| C/C(=C\C[n+]1cn(C)c2ncnc(N)c21)CCCC(C)CCCC(C)CCCC(C)C (stereo not shown) [Compound 2b] | < 0.12 |
| CC(C)=CCC/C(C)=C/CC/C(C)=C/CC/C(C)=C/Cn1cc[n+](C)c1 [Compound 5] | < 0.11 |

test system: not listed separately; test: Cytotoxicity assay, resazurin; assay type: cell-based; conditions: human, MRC-5 SV2 cells (human fetal lung fibroblasts)
Procedure: Cell viability was determined after addition of resazurin.

| Compound | IC50 at 72 h [µg/mL] |
| --- | --- |
| CO/N=c1\[n-]cnc2c1n(C/C=C(\C)CCC=C(C)C)c[n+]2C [Compound 1a] | 0.86 (≈ 2.73 µM) |
| CO/N=c1\[n-]cnc2c1[n+](C/C=C(\C)CC/C=C(\C)CCC=C(C)C)cn2C [Compound 1b] | 0.35 (≈ 0.913 µM) |
| CC(C)=CCC/C(C)=C\CC/C(C)=C/C[n+]1cn(C)c2nc[n-]/c(=N\OCc3ccccc3)c21 [Compound 1c] | 0.31 (≈ 0.674 µM) |
| CC(C)=CCC/C(C)=C\CC/C(C)=C/C[n+]1cn(C)c2ncnc(N)c21 [Compound 2a] | > 26 |
| CC(C)=CCC/C(C)=C/CC/C(C)=C/CC/C(C)=C/Cn1cc[n+](C)c1 [Compound 5] | 7.6 |

same assay, conditions: human, read-out: MRC-5 IC50

| Compound | IC50 at 72 h [µg/mL] |
| --- | --- |
| C/C(=C\C[n+]1cn(C)c2ncnc(N)c21)CCCC(C)CCCC(C)CCCC(C)C (stereo not shown) [Compound 2b] | 0.75 |

test system: Escherichia coli; test: not given; parameters: method as in PMID 17442577; conditions: previous studies; cited from earlier work

| Compound | antibacterial activity against E. coli, in words |
| --- | --- |
| CC(C)=CCC/C(C)=C\CC/C(C)=C/C[n+]1cn(C)c2ncnc(N)c21 [Compound 2a] | virtually inactive |
| CC(C)=CCC/C(C)=C/CC/C(C)=C/CC/C(C)=C/Cn1cc[n+](C)c1 [Compound 5] | not against |

— paper PMC6253839, “Screening of Agelasine D and Analogs for Inhibitory Activity against Pathogenic Protozoa; Identification of Hits for Visceral Leishmaniasis and Chagas Disease” (Molecules, 2009)
